Laboratory results from PubChem BioAssay (NCI).
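Exposure lasted 48 hours, with cells grown in 96-well plates and compounds tested at five concentrations. Here, GI50 denotes the concentration required for 50% inhibition of growth. TGI is the concentration that stops growth completely.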

What was measured:
Experiment in all cases: NCI tumour cell line growth inhibition, 48 h
[1] = tested on: OVCAR-4 ovarian
[2] = tested on: SN12C renal
[3] = tested on: HOP-92 NSCLC
[4] = tested on: NCI-H460 lung
[5] = tested on: PC-3 prostate
[6] = tested on: K-562 leukemia
[7] = tested on: KM12 colon
[8] = tested on: SK-MEL-28 melanoma
[9] = tested on: SNB-75 CNS
[10] = tested on: T-47D breast
[11] = tested on: SK-MEL-5 melanoma
[12] = tested on: MCF7 breast
[13] = tested on: UO-31 renal
[14] = tested on: U251 CNS
[15] = tested on: HS 578T breast
[16] = tested on: SNB-19 CNS
[17] = tested on: M14 melanoma
[18] = tested on: MOLT-4 leukemia
[19] = tested on: SR leukemia
[20] = tested on: NCI/ADR-RES ovarian
[21] = tested on: TK-10 renal
[22] = tested on: HOP-62 NSCLC
[23] = tested on: A549 NSCLC
[24] = tested on: UACC-62 melanoma
[25] = tested on: LOX IMVI melanoma
[26] = tested on: UACC-257 melanoma
[27] = tested on: NCI-H226 lung
[28] = tested on: 786-0 renal
[29] = tested on: CCRF-CEM leukemia
[30] = tested on: NCI-H23 lung
[31] = tested on: ACHN renal
[32] = tested on: HCC-2998 colon
[33] = tested on: A498 renal
[34] = tested on: BT-549 breast
[35] = tested on: MALME-3M melanoma
[36] = tested on: HCT-116 colon
[37] = tested on: SK-OV-3 ovarian
[38] = tested on: OVCAR-3 ovarian
[39] = tested on: RXF 393 renal
[40] = tested on: RPMI-8226 leukemia
[41] = tested on: SW-620 colon
[42] = tested on: IGROV1 ovarian
[43] = tested on: SF-268 CNS
[44] = tested on: HL-60(TB) leukemia
[45] = tested on: HCT-15 colon
[46] = tested on: NCI-H522 lung
[47] = tested on: SF-539 CNS
[48] = tested on: OVCAR-5 ovarian
[49] = tested on: EKVX NSCLC
[50] = tested on: SK-MEL-2 melanoma
[51] = tested on: COLO 205 colon
[52] = tested on: HT29 colon
[53] = tested on: MDA-MB-435
[54] = tested on: SF-295 CNS
[55] = tested on: OVCAR-8 ovarian
[56] = tested on: MDA-MB-231 breast

SMILES: CCN1CCN(c2cc(C)nc(N(CCCNc3ccnc4cc(Cl)ccc34)Cc3cccs3)n2)CC1
- GI50 [1]: 2.11 µM
- TGI [1]: 12.7 µM
- GI50 [2]: 3.35 µM
- TGI [2]: 14 µM
- GI50 [3]: 1.55 µM
- TGI [3]: 3.79 µM
- GI50 [4]: 2.47 µM
- TGI [4]: 7.84 µM
- GI50 [5]: 3.11 µM
- TGI [5]: 15.9 µM
- GI50 [6]: 0.525 µM
- TGI [6]: 2.29 µM
- GI50 [7]: 2.62 µM
- TGI [7]: 12.7 µM
- GI50 [8]: 1.82 µM
- TGI [8]: 3.39 µM
- GI50 [9]: 1.5 µM
- TGI [9]: 3.2 µM
- GI50 [10]: 2.29 µM
- TGI [10]: 6.89 µM
- GI50 [11]: 1.72 µM
- TGI [11]: 3.11 µM
- GI50 [12]: 2.22 µM
- TGI [12]: 10.3 µM
- GI50 [13]: 1.33 µM
- TGI [13]: 2.88 µM
- GI50 [14]: 2.22 µM
- TGI [14]: 7.05 µM
- GI50 [15]: 2.02 µM
- TGI [15]: 5.02 µM
- GI50 [16]: 3.88 µM
- TGI [16]: 13.9 µM
- GI50 [17]: 1.8 µM
- TGI [17]: 3.51 µM
- GI50 [18]: 1.62 µM
- TGI [18]: 6.12 µM
- GI50 [19]: 1.29 µM
- TGI [19]: 3.23 µM
- GI50 [20]: 2.96 µM
- TGI [20]: 16.8 µM
- GI50 [21]: 1.82 µM
- TGI [21]: 4.09 µM
- GI50 [22]: 2.79 µM
- TGI [22]: 15.2 µM
- GI50 [23]: 3.22 µM
- TGI [23]: 14.4 µM
- GI50 [24]: 1.93 µM
- TGI [24]: 3.56 µM
- GI50 [25]: 1.84 µM
- TGI [25]: 3.59 µM
- GI50 [26]: 2.1 µM
- TGI [26]: 3.94 µM
- GI50 [27]: 8.12 µM
- TGI [27]: 31.5 µM
- GI50 [28]: 1.56 µM
- TGI [28]: 3.58 µM
- GI50 [29]: 2.7 µM
- TGI [29]: 12.5 µM
- GI50 [30]: 3.21 µM
- TGI [30]: 14.3 µM
- GI50 [31]: 3.38 µM
- TGI [31]: 9.22 µM
- GI50 [32]: 1.98 µM
- TGI [32]: 4.58 µM
- GI50 [33]: 2.41 µM
- TGI [33]: 7.13 µM
- GI50 [34]: 1.93 µM
- TGI [34]: 5.04 µM
- GI50 [35]: 2.01 µM
- TGI [35]: 3.7 µM
- GI50 [36]: 1.32 µM
- TGI [36]: 10.4 µM
- GI50 [37]: 3.29 µM
- TGI [37]: 10.5 µM
- GI50 [38]: 1.83 µM
- TGI [38]: 6.03 µM
- GI50 [39]: 1.45 µM
- TGI [39]: 3.17 µM
- GI50 [40]: 1.57 µM
- TGI [40]: 4.82 µM
- GI50 [41]: 1.59 µM
- TGI [41]: 3.86 µM
- GI50 [42]: 2.11 µM
- TGI [42]: 6.58 µM
- GI50 [43]: 2.03 µM
- TGI [43]: 6.62 µM
- GI50 [44]: 2.14 µM
- TGI [44]: 4.15 µM
- GI50 [45]: 1.33 µM
- TGI [45]: 4.51 µM
- GI50 [46]: 1.81 µM
- TGI [46]: 3.81 µM
- GI50 [47]: 1.76 µM
- TGI [47]: 3.33 µM
- GI50 [48]: 3.97 µM
- TGI [48]: 15.3 µM
- GI50 [49]: 3.88 µM
- TGI [49]: 16.6 µM
- GI50 [50]: 1.98 µM
- TGI [50]: 3.92 µM
- GI50 [51]: 1.57 µM
- TGI [51]: 3.32 µM
- GI50 [52]: 1.31 µM
- TGI [52]: 4.33 µM
- GI50 [53]: 1.59 µM
- TGI [53]: 2.95 µM
- GI50 [54]: 1.84 µM
- TGI [54]: 3.73 µM
- GI50 [55]: 3.06 µM
- TGI [55]: 10.9 µM
- GI50 [56]: 1.4 µM
- TGI [56]: 3.56 µM
